Results on nine compounds are retold here after article PMC8851660 (ACS Omega, 2022).

One experiment relates to S. aureus clinical. Put plainly: microbe, parasite or virus in culture. It counts as cell-based. The note with it: Staphylococcus aureus, read-out: Gram-positive MIC S. aureus clinical.
The next experiment concerns E. coli (ATCC 25922). In words: microbe, parasite or virus in culture. It counts as cell-based. To be noted: Escherichia coli, ATCC25922, read-out: Gram-negative MIC E. coli ATCC 25922.
A further experiment relates to E. coli MDR. In words: microbe, parasite or virus in culture. Type of experiment: cell-based. The note with it: Escherichia coli, read-out: Gram-negative MIC E. coli MDR.
Experiment [1] concerns P. aeruginosa (ATCC 29853). It counts as cell-based, Pseudomonas aeruginosa.
The next experiment has as its system P. aeruginosa MDR. In words: microbe, parasite or virus in culture. Type of experiment: cell-based, Pseudomonas aeruginosa. To be noted: for MIC: Pseudomonas aeruginosa, read-out: Gram-negative MIC P. aeruginosa MDR.
The test system of the next experiment is C. albicans clinical. Put plainly: microbe, parasite or virus in culture. It counts as cell-based, Candida albicans. To be noted: for MIC: Candida albicans, read-out: fungi MIC C. albicans clinical.

Converted amounts (≈) assume the structure as drawn.

For the compound `CC1(C)S[C@@H]2[C@H](NC(=O)[C@H](N)c3ccc(O)cc3)C(=O)N2[C@H]1C(=O)O` [AMOX, amoxicillin, reference compound], the MIC in the experiment with S. aureus clinical was at most 7.81 µg/mL; with E. coli (ATCC 25922) it was 62.5 µg/mL (≈ 171 µM); in the experiment with E. coli MDR, 250 µg/mL (≈ 684 µM); with P. aeruginosa MDR it was over 500 µg/mL. Further, the “Gram-negative MIC P. aeruginosa (ATCC 29853)” value in experiment [1] was over 500 µg/mL. Further, the “Gram-negative MIC P. aeruginosa MDR” value with P. aeruginosa MDR was over 500 µg/mL.

`C[C@@H]1[C@H](O)[C@@H](C)/C=C/C=C/CC/C=C/C=C/C=C/C=C/C(O[C@H]2O[C@H](C)[C@@H](O)[C@H](N)[C@@H]2O)CC2O[C@](O)(CC(O)C(O)CCC(O)CC(O)CC(O)CC(=O)O[C@H]1C)CC(O)C2C(=O)O` (stereo partly drawn) [NYS, nystatin, reference compound]: the “fungi MIC C. albicans clinical” value in the experiment with C. albicans clinical is under 2 µg/mL.

Consider `Cc1nc2ccccc2n(-c2ccc([N+](=O)[O-])cc2[N+](=O)[O-])c1=O` [Compound 4, 1-(2,4-Dinitrophenyl)-3-methylquinoxalin-2(1H)-one], for which the MIC in the experiment with S. aureus clinical was 16.1 µg/mL (≈ 49.4 µM); in the experiment on E. coli (ATCC 25922), 125 µg/mL (≈ 383 µM); with E. coli MDR, 125 µg/mL (≈ 383 µM); in the experiment on P. aeruginosa MDR it was 125 µg/mL (≈ 383 µM); in the experiment on C. albicans clinical, 125 µg/mL (≈ 383 µM).

Consider `Cn1ccc(=O)nc1Sc1ccc([N+](=O)[O-])cc1[N+](=O)[O-]` [Compound 7, 2-[(2,4-Dinitrophenyl)thio]-1-methylpyrimidin-4(1H)-one], for which the MIC turned out to be 32.2 µg/mL (≈ 105 µM) with S. aureus clinical; 64.5 µg/mL (≈ 209 µM) in the experiment on E. coli (ATCC 25922); 125 µg/mL (≈ 405 µM) in the experiment on E. coli MDR; 125 µg/mL (≈ 405 µM) with P. aeruginosa MDR; 16.1 µg/mL (≈ 52.3 µM) with C. albicans clinical.

In the case of `O=[N+]([O-])c1ccc(-n2ccnc2)c([N+](=O)[O-])c1` [Compound 11, 1-(2,4-Dinitrophenyl)-1H-imidazole], the MIC in the experiment on S. aureus clinical, in the experiment with E. coli (ATCC 25922), in the experiment with E. coli MDR, with P. aeruginosa MDR and in the experiment with C. albicans clinical was 125 µg/mL (≈ 534 µM) in each case.

On to `CC(C)(C)c1cccc(C(C)(C)C)c1Oc1ccc([N+](=O)[O-])cc1[N+](=O)[O-]` [Compound 9, 1,3-Di-tert-butyl-2-(2,4-dinitrophenoxy)benzene], for which the MIC in the experiment on S. aureus clinical was 500 µg/mL (≈ 1340 µM); in the experiment with E. coli (ATCC 25922) it was over 500 µg/mL; with E. coli MDR, 125 µg/mL (≈ 336 µM); in the experiment on P. aeruginosa MDR it was 125 µg/mL (≈ 336 µM); with C. albicans clinical, over 500 µg/mL.

Consider `O=c1c(Cc2ccccc2)nc2ccccc2n1-c1ccc([N+](=O)[O-])cc1[N+](=O)[O-]` [Compound 5, 3-Benzyl-1-(2,4-dinitrophenyl)quinoxalin-2(1H)-one], for which the MIC in the experiment with S. aureus clinical was 500 µg/mL (≈ 1240 µM); with E. coli (ATCC 25922) it was over 500 µg/mL; with E. coli MDR, over 500 µg/mL; in the experiment with P. aeruginosa MDR it was 125 µg/mL (≈ 311 µM); in the experiment on C. albicans clinical it was over 500 µg/mL.

Regarding `O=[N+]([O-])c1ccc(Oc2cccc3cccnc23)c([N+](=O)[O-])c1` [Compound 8, 8-(2,4-Dinitrophenoxy)quinoline], the MIC with S. aureus clinical, in the experiment on E. coli (ATCC 25922), in the experiment with E. coli MDR, in the experiment on P. aeruginosa MDR and with C. albicans clinical was 125 µg/mL (≈ 402 µM) throughout.

Regarding `O=[N+]([O-])c1ccc(Sc2nc3ccccc3s2)c([N+](=O)[O-])c1` [Compound 6, 2-[(2,4-Dinitrophenyl)thio]benzo[d]thiazole], the MIC in the experiment on S. aureus clinical was 500 µg/mL (≈ 1500 µM); with E. coli (ATCC 25922), 500 µg/mL (≈ 1500 µM); in the experiment on E. coli MDR, over 500 µg/mL; with P. aeruginosa MDR, 125 µg/mL (≈ 375 µM); with C. albicans clinical, 500 µg/mL (≈ 1500 µM).
